Reference: paper PMC13198257, “An aerosolized dual-action autotaxin inhibitor-PPARγ agonist for the treatment of pulmonary fibrosis” (Cell Reports Medicine, 2026)

Tested on: lung gene expression
Assay: RNA sequencing of lung tissue (BLM/EL244 vs BLM)
Format: in vivo, mouse
Settings: lung tissue, BLM/EL244 vs BLM
Experimental: RNA quality was assessed using an Agilent TapeStation 4150 with the High Sensitivity […] ScreenTape (Agilent), according to the manufacturer’s protocols. For library preparation, the QuantSeq 3’mRNA-Seq Library Prep Kit (Lexogen) was used according to manufacturer’s instructions. Briefly, 500 ng of RNA from each sample was used for first-strand synthesis, followed by RNA template removal, and second-strand synthesis initiated by random primers. In-line barcodes were introduced at this step, and this was followed by magnetic bead-based purification. The resulting libraries were amplified for 15 cycles and re-purified, with quantity and quality assessed on a Qubit 4 Fluorometer with the Invitrogen Qubit dsDNA HS Assay and an Agilent Tapestation 4150 with the High Sensitivity D1000 assay kit, respectively. The quantified libraries were pooled equimolarly; 50ng of total library mix was used for Adapter Conversion PCR Amplification using the Universal Library Conversion Kit (App-A), Version: V1.0 (MGI Tech Co., Ltd.), according to the manufacturer’s instructions.
The quantity and quality of the purified adapter conversion PCR (AC-PCR) product were evaluated on a Qubit 4 Fluorometer with the Invitrogen Qubit dsDNA HS Assay and on an Agilent Tapestation 4150 with the High Sensitivity D1000 assay kit, respectively. This was followed by DNA denaturation, Single-Strand Circularisation, Enzymatic Digestion, Enzymatic Digestion Product Cleanup and Quality Control steps on 1 pmol of AC-PCR product, according to the Universal Library Conversion Kit (App-A) User Manual (Version: A3).
Finally, 60 fmol of ssCirDNA were used for DNB preparation and sequencing on a DNBSEQ-G400 platform at the BSRC Alexander Fleming Genomics Facility, using a G400 App-A FCS SE100 High-throughput Sequencing Set (MGI Tech Co., Ltd.), according to the manufacturer’s instructions.
Alignment of the FASTQ files was performed against the mouse genome build mm10 using a custom Bash script.[143] Read counting on the 3′ UTRs and differential expression analysis were conducted using the metaseqR2 bioconductor package.[144] Genes corresponding to the following biotypes were excluded: polymorphic_pseudogene, processed_transcript, pseudogene, IG_V_pseudogene, misc_RNA, IG_C_gene, IG_J_gene, IG_D_gene, IG_LV_gene, TR_V_gene, TR_V_pseudogene, TEC, and processed_pseudogene. Gene counts were normalized with DESEQ[145] through metaseqR2. Genes with more than 10 counts in at least 50% of the samples were kept for further processing. For differential expression analysis, the PANDORA algorithm[146] was used to estimate a meta p-value integrating the results from the DESEQ, DESEQ2,[147] edgeR,[148] limma,[149] NBPSeq,[150] and NOISeq[151] algorithms. All additional parameters were set to default values.
Pathway enrichment analysis was performed for the Gene Ontology Biological process (BP) and Molecular Function (MF) terms through GeneCodis 4.[152] The volcano plots, scatterplots, Venn diagrams, and dot plots were generated using the ggplot2 Bioconductor package.

O=C1NC(=O)C(Cc2ccc(OCCC3CCN(C(=O)OCc4cc(Cl)cc(Cl)c4)CC3)cc2)S1 (centres unmarked) [EL244, 3,5-dichlorobenzyl 4-(2-(4-((2,4-dioxothiazolidin-5-yl)methyl)phenoxy)ethyl)piperidine-1-carboxylate]
log2 nFC Hells: -1.30 | log2 nFC Il18bp: -0.95 | log2 nFC Ildr2: -1.32 | log2 nFC Itm2a: -1.25 | log2 nFC Kcnn4: -1.27 | log2 nFC Kdelr3: -1.25 | log2 nFC Kif23: -1.20 | log2 nFC Klhdc8a: -1.02 | log2 nFC Kntc1: -1.39 | log2 nFC Lair1: -0.92 | log2 nFC Lat2: -1.10 | log2 nFC Lcn2: -0.95 | log2 nFC Lgals1: -1.12 | log2 nFC Lgmn: -1.09 | log2 nFC Lilrb4a: -0.89 | log2 nFC Lmnb1: -0.91 | log2 nFC Loxl2: -0.91 | log2 nFC Lrg1: -0.89 | log2 nFC Lum: -1.32 | log2 nFC Mad2l1: -0.97 | log2 nFC Mafb: -0.92 | log2 nFC Mark1: -1.23 | log2 nFC Mcm5: -1.33 | log2 nFC Mdk: -1.34 | log2 nFC Mfap5: -1.12 | log2 nFC Mfrp: -0.87 | log2 nFC Mgp: -1.03 | log2 nFC Mir692-1: -1.18 | log2 nFC Mmp14: -1.31 | log2 nFC Ms4a6c: -0.91 | log2 nFC Ms4a6d: -0.93 | log2 nFC Ncapd2: -1.29 | log2 nFC Ndnf: -0.87 | log2 nFC Nnat: -1.34 | log2 nFC Nrcam: -1.26 | log2 nFC Nrep: -1.26 | log2 nFC P2ry6: -0.93 | log2 nFC Paox: -0.92 | log2 nFC Pcdh7: -1.03 | log2 nFC Pdlim4: -1.24 | log2 nFC Plk4: -1.31 | log2 nFC Polh: -0.87 | log2 nFC Ppic: -1.10 | log2 nFC Prdx4: -0.94 | log2 nFC Psat1: -0.98 | log2 nFC Psrc1: -1.26 | log2 nFC Pth1r: -1.40 | log2 nFC Racgap1: -1.21 | log2 nFC Rcc1: -0.92 | log2 nFC Rgs4: -1.23 | log2 nFC Rgs5: -1.00 | log2 nFC Rhof: -1.02 | log2 nFC S100a4: -1.26 | log2 nFC S100a14: -1.28 | log2 nFC Scn3b: -0.91 | log2 nFC Serpina3g: -1.31 | log2 nFC Serpina3n: -1.22 | log2 nFC Serpine1: -0.98 | log2 nFC Serpine2: -0.87 | log2 nFC Serpinh1: -0.87 | log2 nFC Sertad4: -1.35 | log2 nFC Sfn: -1.19 | log2 nFC Sh2b2: -1.23 | log2 nFC Slamf8: -1.24 | log2 nFC Smc2: -0.98 | log2 nFC Snai1: -0.97 | log2 nFC Spc24: -1.13 | log2 nFC St8sia6: -1.04 | log2 nFC Tacc3: -1.27 | log2 nFC Tiam1: -1.04 | log2 nFC Tlr2: -1.04 | log2 nFC Tnfaip8l1: -1.08 | log2 nFC Tnfrsf11a: -1.12 | log2 nFC Tns4: -1.20 | log2 nFC Traf4: -1.10 | log2 nFC Tubb2b: -1.19 | log2 nFC Tyms: -1.02 | log2 nFC Ulbp1: -1.06 | log2 nFC Vcan: -1.21 | log2 nFC Wfdc17: -1.30 | nFC 1500009L16Rik: 0.43 | nFC 2200002D01Rik: 0.54 | nFC AA467197: 0.38 | nFC Adamts2: 0.50 | nFC Areg: 0.49 | nFC Arhgap11a: 0.46 | nFC Armcx4: 0.40 | nFC Asf1b: 0.45 | nFC Bcl2a1b: 0.45 | nFC Bcl2a1d: 0.41 | nFC Bub1b: 0.44 | nFC C1qtnf5: 0.55 | nFC C1qtnf6: 0.38 | nFC Ccdc8: 0.46 | nFC Ccl9: 0.39 | nFC Ccl17: 0.52 | nFC Cd68: 0.50 | nFC Cd72: 0.50 | nFC Cd248: 0.42 | nFC Cd300c2: 0.54 | nFC Cdca2: 0.40 | nFC Cenpa: 0.40 | nFC Cenpw: 0.40 | nFC Cercam: 0.39 | nFC Ch25h: 0.53 | nFC Cilp: 0.38 | nFC Clcn5: 0.53 | nFC Clec4a2: 0.42 | nFC Clec4n: 0.38 | nFC Clec5a: 0.45 | nFC Clec11a: 0.50 | nFC Clec12a: 0.53 | nFC Col1a2: 0.38 | nFC Col8a1: 0.44 | nFC Col12a1: 0.54 | nFC Col15a1: 0.47 | nFC Col16a1: 0.53 | nFC Cotl1: 0.54 | nFC Csf2rb2: 0.50 | nFC Cstb: 0.52 | nFC Ctsk: 0.51 | nFC Ctss: 0.53 | nFC Cx3cr1: 0.44 | nFC Cyp7b1: 0.38 | nFC Dbn1: 0.54 | nFC Dclk1: 0.55 | nFC Diaph3: 0.46 | nFC Dio2: 0.38 | nFC Dok2: 0.39 | nFC Dut: 0.54 | nFC Egr2: 0.54 | nFC Epha4: 0.54 | nFC F10: 0.46 | nFC Fam20c: 0.48 | nFC Fbn1: 0.49 | nFC Fcgr1: 0.41 | nFC Fcgr2b: 0.47 | nFC Fcrls: 0.39 | nFC Fen1: 0.50 | nFC Fgf13: 0.38 | nFC Fkbp10: 0.42 | nFC Fndc1: 0.46 | nFC Fscn1: 0.43 | nFC Fst: 0.48 | nFC Fstl1: 0.43 | nFC Gas2l3: 0.40 | nFC Gm13889: 0.55 | nFC Gm25380: 0.50 | nFC Gm42674: 0.44 | nFC Gm49339: 0.52 | nFC Hells: 0.41 | nFC Il18bp: 0.52 | nFC Ildr2: 0.40 | nFC Itm2a: 0.42 | nFC Kcnn4: 0.41 | nFC Kdelr3: 0.42 | nFC Kif23: 0.44 | nFC Klhdc8a: 0.49 | nFC Kntc1: 0.38 | nFC Lair1: 0.53 | nFC Lat2: 0.47 | nFC Lcn2: 0.52 | nFC Lgals1: 0.46 | nFC Lgmn: 0.47 | nFC Lilrb4a: 0.54 | nFC Lmnb1: 0.53 | nFC Loxl2: 0.53 | nFC Lrg1: 0.54 | nFC Lum: 0.40 | nFC Mad2l1: 0.51 | nFC Mafb: 0.53 | nFC Mark1: 0.42 | nFC Mcm5: 0.40 | nFC Mdk: 0.40 | nFC Mfap5: 0.46 | nFC Mfrp: 0.55 | nFC Mgp: 0.49 | nFC Mir692-1: 0.44 | nFC Mmp14: 0.40 | nFC Ms4a6c: 0.53 | nFC Ms4a6d: 0.53 | nFC Ncapd2: 0.41 | nFC Ndnf: 0.55 | nFC Nnat: 0.40 | nFC Nrcam: 0.42 | nFC Nrep: 0.42 | nFC P2ry6: 0.52 | nFC Paox: 0.53 | nFC Pcdh7: 0.49 | nFC Pdlim4: 0.42 | nFC Plk4: 0.40 | nFC Polh: 0.55 | nFC Ppic: 0.47 | nFC Prdx4: 0.52 | nFC Psat1: 0.51 | nFC Psrc1: 0.42 | nFC Pth1r: 0.38 | nFC Racgap1: 0.43 | nFC Rcc1: 0.53 | nFC Rgs4: 0.42 | nFC Rgs5: 0.50 | nFC Rhof: 0.49 | nFC S100a4: 0.42 | nFC S100a14: 0.41 | nFC Scn3b: 0.53 | nFC Serpina3g: 0.40 | nFC Serpina3n: 0.43 | nFC Serpine1: 0.51 | nFC Serpine2: 0.55 | nFC Serpinh1: 0.55 | nFC Sertad4: 0.39 | nFC Sfn: 0.44 | nFC Sh2b2: 0.43 | nFC Slamf8: 0.42 | nFC Smc2: 0.51 | nFC Snai1: 0.51 | nFC Spc24: 0.46 | nFC St8sia6: 0.49 | nFC Tacc3: 0.42 | nFC Tiam1: 0.49 | nFC Tlr2: 0.48 | nFC Tnfaip8l1: 0.47 | nFC Tnfrsf11a: 0.46 | nFC Tns4: 0.44 | nFC Traf4: 0.47 | nFC Tubb2b: 0.44 | nFC Tyms: 0.49 | nFC Ulbp1: 0.48 | nFC Vcan: 0.43 | nFC Wfdc17: 0.41
